Patent US9284350B2, “IAP BIR domain binding compounds” (Pharmascience Inc., priority 2010, dated 2016)

Legend:
XIAP = molecular target: T1, XIAP (Homo sapiens, UniProt P98170); experiment: Fluorescence polarization-based competition assay, XIAP; format: binding; details: FP assay, ki derived from IC50
T1 construct: fused on or other part: GST tag at the N-terminus (pGEX4T vectors)
How it was run: (§1)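 Competition of FITC-labelled probe (2 nM) binding to the BIR domain, protein set at 80% of maximal FP signal; 10-point compound dilutions in 50 mM HEPES pH 7.5, γ-globulin, 2 mM DTT, 1% DMSO, 1 h at room temperature in the dark. IC50 from sigmoidal fit; Ki derived from IC50.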

c-IAP1 = molecular target: T2, c-IAP1 (Homo sapiens, UniProt Q13490); experiment: Fluorescence polarization-based competition assay, c-IAP1; format: binding; details: FP assay, ki derived from IC50
T2 construct: GST (N); made in house; host or cells: E. coli DH5α
How it was run: as §1

cIAP2 = molecular target: T3, cIAP2 (Homo sapiens, UniProt Q13489); experiment: Fluorescence polarization-based competition assay, cIAP2; format: binding; details: FP assay, ki derived from IC50
T3 construct: GST (N); made in house; host or cells: E. coli DH5α
How it was run: as §1

[1] = test system: Colorectal carcinoma HCT116 cells; experiment: Cell death assay (MTT) in combination with HGS ETR1; format: cell-based; details: with HGS ETR1 30 ng/ml, 72 hours, read-out: HCT116+ mapatubimap EC50
How it was run: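 HCT116 cells (2000/well, McCoy's 5a, 10% FBS) were treated 24 h after plating with compound plus the agonistic TRAIL receptor antibody mapatumumab (ETR1, 30 ng/ml) for 72 hours. Viability was read by MTT. EC50 was the concentration giving 50% survival relative to untreated controls.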

MDA-MB-231 (CD) cells = experiment: MDA-MB-231 compound + mapatubamab xenograft study; format: in vivo, nude mice; details: 30 and 60 mg/kg, PO, QD in combination with mapatubamab (10 mg/kg, IV)
Description: Female, nude mice received 5×10^6 MDA-MB-231 (CD) cells subcutaneously in the right flank (0.1 mL volume) on day 0 of the experiment. When the average tumor size reached ˜100 mm^3, groups were formed using a balanced design based on tumor size, and dosing was initiated. Test compound 10 or 7 (see Table 1) (or corresponding vehicle alone) was given daily, and mapatubamab (or corresponding vehicle alone) was given twice weekly. Tumor size and body weight were measured twice weekly throughout the study.

[2] = Maximum Tolerated Dose (MTD) study; format: in vivo, CD-1 mice; details: 350 mg/kg dose, PO twice weekly
Description: Male, CD-1 mice (20-25 g on arrival, Charles River) were habituated to the animal facility for four days and then randomly assigned to treatment groups. Animals were dosed by oral gavage twice weekly, for a total of six treatments, with compounds 63, 58, 45, 10, 20, 40, and 66 at 15, 70, or 350 mg/kg in water, PO, or water alone (5 ml/kg, PO). Body weight and general health were monitored throughout the experiment. Twenty four hours after the last dose (day 19), animals were anesthetized with isoflurane, and blood was collected for serum biochemistry. Serum biochemical parameters were restricted to random glucose, urea, creatinine, total protein, albumin, globulin, A:G ratio, total bilirubin, AST, ALT, alkaline phosphatase, GGT and amylase. Once exsanguinated the animals underwent full necropsy and organ weights were recorded for brain, heart, liver, spleen, kidneys, stomach (empty) and intestine (empty, from stomach to cecum). Because some treatments were suppressing weight gain (see below), organ weights were normalized to brain weight, and then expressed as percent change from the vehicle treated control group.

T1 sequence (P98170 246-497 limits assumed): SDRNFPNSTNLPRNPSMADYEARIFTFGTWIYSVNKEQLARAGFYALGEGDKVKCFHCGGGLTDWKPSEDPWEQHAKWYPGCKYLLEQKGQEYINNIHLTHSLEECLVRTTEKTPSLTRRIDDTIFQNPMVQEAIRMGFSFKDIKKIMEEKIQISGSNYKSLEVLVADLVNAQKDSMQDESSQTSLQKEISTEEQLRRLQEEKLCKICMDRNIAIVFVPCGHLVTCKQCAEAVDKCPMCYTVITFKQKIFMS
T2 sequence (Q13490 251-363): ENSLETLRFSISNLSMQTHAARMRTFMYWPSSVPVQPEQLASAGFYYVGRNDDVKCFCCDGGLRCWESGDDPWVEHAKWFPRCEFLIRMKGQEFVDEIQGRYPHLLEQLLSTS
T3 sequence (Q13489 236-349): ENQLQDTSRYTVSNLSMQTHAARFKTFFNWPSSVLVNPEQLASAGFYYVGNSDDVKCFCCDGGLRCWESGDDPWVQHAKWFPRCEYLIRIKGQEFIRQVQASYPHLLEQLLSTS

SMILES	Ki (XIAP)	Ki (c-IAP1)	Ki (cIAP2)	EC50 [1]	reduction of tumor volume as compared to control (MDA-MB-231 (CD) cells)	body weight change [2]
CN[C@@H](C)C(=O)N[C@H](C(=O)N1CCC[C@H]1CN(CCc1ccccc1)C(=O)c1cn2ccccc2n1)C(C)(C)C [Compound 7]	< 0.25 µM	< 0.025 µM	< 0.025 µM	< 0.25 µM	50%	
CN[C@@H](C)C(=O)N[C@H](C(=O)N1CCC[C@H]1CN(CCc1ccc(F)cc1)C(=O)c1cn2cc(F)cnc2n1)C(C)(C)C [Compound 63]	< 0.25 µM	< 0.025 µM	< 0.025 µM	< 0.05 µM		slight weight loss
CN[C@@H](C)C(=O)N[C@H](C(=O)N1CCC[C@H]1CN(CCc1ccc(F)cc1)C(=O)c1cn2cccnc2n1)C(C)(C)C [Compound 10]	< 0.25 µM	< 0.025 µM	< 0.025 µM	< 0.05 µM	50%	
CN[C@@H](C)C(=O)N[C@H](C(=O)N1CCC[C@H]1CN(CCc1ccc(F)cc1)C(=O)c1cn(C)cn1)C(C)(C)C [Compound 40]	< 0.25 µM	< 0.025 µM	< 0.025 µM	< 0.05 µM		slight weight loss
CN[C@@H](C)C(=O)N[C@H](C(=O)N1C[C@@H](NC(C)=O)C[C@H]1CN(CCc1ccc(F)cc1)C(=O)c1cn2ccccc2n1)C(C)(C)C [Compound 70]	< 1 µM	< 0.025 µM	< 0.25 µM	< 1 µM		
CN[C@@H](C)C(=O)N[C@H](C(=O)N1C[C@@H](Oc2ccc(OC)cc2)C[C@H]1CN(CCc1ccc(F)cc1)C(=O)c1cn2ccccc2n1)C(C)(C)C [Compound 105]	< 0.025 µM	< 0.025 µM	< 0.025 µM	< 0.05 µM		
CCN[C@@H](C)C(=O)N[C@H](C(=O)N1CCC[C@H]1CN(CCc1ccccc1)C(=O)c1cn2cccnc2n1)C(C)(C)C [Compound 14]	< 1 µM	< 0.025 µM	< 0.25 µM	< 0.25 µM		
CN[C@@H](C)C(=O)N[C@H](C(=O)N1C[C@@H](NC(=O)c2ccccc2)C[C@H]1CN(CCc1ccc(F)cc1)C(=O)c1cn2ccccc2n1)C(C)(C)C [Compound 69]	< 0.25 µM	< 0.025 µM	< 0.025 µM	< 0.25 µM		
CN[C@@H](C)C(=O)N[C@H](C(=O)N1CCC[C@H]1CN(CCc1ccc(F)cc1)C(=O)c1cn(-c2ccc(F)cc2)cn1)C(C)(C)C [Compound 66]	< 0.25 µM	< 0.025 µM	< 0.025 µM	< 0.05 µM		
CN[C@@H](C)C(=O)N[C@H](C(=O)N1C[C@@H](Oc2ccc(F)cc2)C[C@H]1CN(CCc1ccc(F)cc1)C(=O)c1cn2cccnc2n1)C(C)(C)C [Compound 65]	< 0.025 µM	< 0.025 µM	< 0.025 µM	< 0.05 µM		
CN[C@@H](C)C(=O)N[C@H](C(=O)N1C[C@@H](Oc2ccc(F)cc2)C[C@H]1CN(CCc1ccc(F)cc1)C(=O)c1cn2c(n1)CCC2)[C@@H](C)OC [Compound 114]	< 0.025 µM	< 0.025 µM	< 0.025 µM	< 0.05 µM		
CN[C@@H](C)C(=O)N[C@H](C(=O)N1CCC[C@H]1CN(CCc1ccc(F)cc1)C(=O)c1cc(-c2ccccc2)on1)C(C)(C)C [Compound 115]	< 0.25 µM	< 0.025 µM	< 0.025 µM	< 0.25 µM		
CN[C@@H](C)C(=O)N[C@H](C(=O)N1C[C@@H](Oc2ccc(F)cc2)C[C@H]1CN(CCc1ccc(F)cc1)C(=O)c1cn(-c2ccc(F)cc2)cn1)[C@@H](C)OC [Compound 108]	< 0.25 µM	< 0.025 µM	< 0.025 µM	< 0.25 µM		
CN[C@@H](C)C(=O)N[C@H](C(=O)N1C[C@@H](NC(=O)Cc2ccccc2)C[C@H]1CN(CCc1ccc(F)cc1)C(=O)c1cn2cccnc2n1)C(C)(C)C [Compound 56]	< 1 µM	< 0.025 µM	< 0.025 µM	< 1 µM		
